Measured values as given in a melting point compilation (Tetko et al.; mined from patent text by program, amines drawn as free bases though some values may be those of a salt).

| melting point | Compound |
| --- | --- |
| 115 to 116 °C | CN(C)c1ccc(C(=O)C(F)(F)c2ccccc2)cc1 |
| 285 °C | O=c1[nH]c(=O)c2c3c(cc([N+](=O)[O-])c2[nH]1)OCO3 |
| 60 °C | CC(Cl)c1ccc(C(=O)c2cccs2)cc1 (stereo not drawn) |
| 228 to 230 °C | O=C1CCC(N2Cc3c(OCc4nc5cc(CN6CCOCC6)ccc5s4)cccc3C2=O)C(=O)N1 (stereo not drawn) |
| 297 to 299 °C | NNC(=O)c1cccc(C(=O)N(NC(=O)c2ccccc2)C(=O)c2ccccc2)c1 |
| 153 to 155 °C | CC(=O)NC1CCN(c2cccc(Cl)n2)CC1 |
| 131 to 133 °C | CCc1noc(C)c1-c1[nH]c2ccccc2c1CCCN(C)C |
| 209 to 211 °C | CCOC(=O)c1cn(N2CCOCC2)c2ccc(CN3CCOCC3)cc2c1=O |
| 69 to 70 °C | CCCCCNCc1ccc(-c2ccccc2S(=O)(=O)NC(C)(C)C)cc1 |
| 134 to 138 °C | COc1ccc(CCNc2nc(N)c(N)c(N)n2)cc1 |
| 155 °C | Cc1cccc(C)c1NC(=O)CN1CCN2C(C1)C(=O)N(C(C)C)C2(C)C (stereo not drawn) |
| 160 °C | Nc1cc(=O)n(Cc2cc(Cl)ccc2F)[nH]1 |
| 151 to 155 °C | COc1cc2ncnc(N3CCC(NCc4ccccn4)CC3)c2cc1OC |
| 111 °C | CCc1ccc(C(C)=O)c(NC(C#N)c2c(Cl)cccc2Cl)c1 (stereo not drawn) |
| 159 °C | CC(=O)OC1CSC(Sc2ccc(S(=O)(=O)c3ccccc3)cc2)C(OC(C)=O)C1OC(C)=O (stereo not drawn) |
| 167 °C | Cc1cc(-c2ccc(C(F)(F)F)cc2)cc(-c2ccnc(-c3cccc(N)c3)n2)n1 |
| 106 to 107 °C | CC(C)C[C@H](NC(=O)OCc1ccccc1)C(=O)N[C@@H](Cc1cccs1)C(=O)CSCc1ccco1 |
| 178 to 180 °C | CC(=O)NC1COc2c(C)ccc(N)c2C1=O (stereo not drawn) |

| melting point | Compound |
| --- | --- |
| 180 °C | COCc1cnc2c(NC(=O)c3c(Cl)cccc3Cl)ccc(C)c2c1Cl |
| 51 to 53 °C | CCCP(=O)(CCC)COS(=O)(=O)c1c(C)cccc1Cl |
| 169 °C | NS(=O)(=O)c1cc(C(=O)CBr)ccc1Cl |
| 74 °C | O=[N+]([O-])c1cc2c(cc1Sc1ccccn1)CCC2 |
| 141 to 142 °C | O=C1CC2CCc3ccncc3C2=NN1c1ccc(C(F)(F)F)cc1 (stereo not drawn) |
| 125 to 127 °C | Cn1c(C(F)(F)F)cc(=O)n(-c2cc(OCCC3OCCO3)c(Cl)cc2F)c1=O |
| 140 to 141 °C | O=C(O)[C@@H]1CCC(=O)N1C(=O)c1ccccc1 |
| 136 to 137 °C | CNC1CCC2C3CCc4cc(OC)ccc4C3CCC12C (stereo not drawn) |
| 264 to 266 °C | NC(=O)c1c(N)oc2ccccc2c1=O |
| 118 to 119 °C | Cc1ccc(C(=S)c2ccc3n2CCCC3C#N)cc1 (stereo not drawn) |
| 94 to 95 °C | CC(C)(C)[Si](C)(C)O[Si](C)(C)C(C)(C)C |
| 41 to 43 °C | FC(F)Sc1nc2ncccc2s1 |
| 103 to 116 °C | CCCCNC(=O)OCC(=NNC(N)=S)c1ccccc1 |
| 172 to 173 °C | COc1ccc(S(=O)(=O)Nc2cccnc2Nc2ccncc2)cc1 |
| 157 to 158 °C | C[C@H]([C@](O)(Cn1cncn1)c1ccc(F)cc1F)S(=O)(=O)N1CCOCC1 |
| > 280 °C | CN1C(=O)Nc2c(Cl)cc(Cl)cc2C12NC(=O)NC2=O (stereo not drawn) |
| 191 to 192 °C | CC[C@H]1c2ccc(C#N)n2-c2cc(F)c(F)cc2N1S(=O)(=O)c1ccc(O)cc1 |
| 257 °C | O=C(Nc1cccc(S(=O)(=O)NCc2cccnc2)c1)c1cnn2c(C(F)(F)F)cc(-c3ccc(C(F)(F)F)cc3)nc12 |

The next lines start with the molecule.

| Compound | melting point |
| --- | --- |
| CCCCCCCOc1ccc(C(C)O)cc1 (single isomer, unassigned; (+)) | 36.7 °C |
| COc1ccc(C(=O)NCCCSc2nnnn2C)cc1 | 118 to 122 °C |
| COc1cc2c(c(Cl)c1Cl)C(=O)C(C)(C)C2(C)c1ccccc1 (stereo not drawn) | 189 to 190 °C |
| CC(=O)NC1CCC2=C(CC1)C(=O)C(CC(=O)O)C=C2 (stereo not drawn) | 198 °C |
| CCNC(=O)c1c([Si](C)(C)C)ccc(/C=C/[N+](=O)[O-])c1Cl | 104 to 106 °C |
| COc1ccc(C(C[N+](=O)[O-])SC(=S)N(C)C)cc1OC (stereo not drawn) | 108 to 110 °C |
| CCCCCCCCCCCCCCCCOc1ccc(OCC(=O)N(Cc2ccccn2)C(C)=O)cc1 | 58 to 59 °C |
| CC(=O)NC(CCCCCCCCCCCCO)(COC(C)=O)COC(C)=O | 75 to 76.5 °C |
| CCCCCCCN(CCN1CCN(CCSc2nc3c(C)c(Cl)cc(C(C)C)c3o2)CC1)C(=O)Nc1c(C(C)C)cc(O)cc1C(C)C | 138 to 140 °C |
| CCN(CC)C(=S)Oc1cc(Br)cc(Br)c1 | 72 to 74 °C |
| CS(=O)(=O)ON=C(C#N)C=Cc1ccccc1 | 127 to 129 °C |
| CN(CCNc1ccn2ncc(-c3cccs3)c2n1)C(=O)OC(C)(C)C | 140 to 141 °C |
| COc1ccc(-c2nc(Sc3ccccc3)n(Cc3ccccc3)c2-c2ccc(OC)cc2)cc1 | 113 to 115 °C |
| CCCc1cc(CC(=O)O)ccc1OC1COc2ccc(C(C)=O)c(O)c2C1 (stereo not drawn) | 129 to 130 °C |
| CCOC(=O)c1cn(-c2ncnn2C)c2nc(Cl)c(F)cc2c1=O | 256 to 263 °C |
| NC(=O)c1cc(C(=O)N(CCO)CCO)cc([N+](=O)[O-])c1 | 151 °C |
| COc1ccc2c(c1)C(=NNc1ccc(S(N)(=O)=O)cc1)C(=O)N2 | > 250 °C |
| O=C(C=Cc1ccccc1)Nc1ccc2ccc(Cl)nc2n1 | 263 °C |
| O=C(NCc1cc(C(F)(F)F)cc(C(F)(F)F)c1)c1cnc(Cl)nc1Cl | 144 to 145 °C |

| Compound | melting point |
| --- | --- |
| COc1ccc2ccc3c(c2c1)CC(C(=O)O)CO3 (stereo not drawn) | 165 °C |
| COc1cc(F)ccc1Nc1ccc2c(c1)OCc1cc(N)ccc1C2=O | 38.9 °C |
| Sc1ncc2c(n1)-c1ccc(Cl)cc1C(c1ccccc1Cl)=NC2 | 232 to 234 °C |
| COc1cc(C=C2C(=O)NC(=O)N2C)ccc1O | 197 to 198 °C |
| CNC(=C[N+](=O)[O-])NCCSCc1ccsn1 | 118 to 120 °C |
| Cc1nn(-c2ccc(Cl)cc2Cl)c(=O)n(C)c1=O | 109 to 110 °C |
| O=S(=O)(Nc1ccc2c(OCc3coc(-c4ccccc4)n3)cccc2c1)C(F)(F)F | 195 to 197 °C |
| CC(C)c1nn(-c2ccc(C(F)(F)F)cn2)cc1CCCOc1cc(CCC(=O)O)n(C2CCCCC2)n1 | 166 to 167 °C |
| NS(=O)(=O)c1cc2cc(N3CCOCC3)ccc2s1 | 155 to 156 °C |
| Cc1ccc(S(=O)(=O)NC(=O)OCCc2ccc(-n3c(CCCc4ccccc4)nc4c(C)nc(C)cc43)cc2)cc1 | 175 °C |
| Cn1c(-c2cccs2)nnc1S(C)(=O)=O | 157 to 159 °C |
| CCOC(=O)C1=C(C)NC(C)=C(C(=O)OCC)C1c1cccc(F)c1F | 161 to 162 °C |
| CCC12CCC(=O)C=C1c1c(cc(OCC(=O)OCC(C)=O)c(Cl)c1Cl)C2 (stereo not drawn) | 153 to 155 °C |
| CCc1cccc(CC)c1NS(=O)(=O)c1ccc(C)cc1 | 130 to 131 °C |
| CCc1c(C)nc(SCc2cc(C)ccn2)[nH]c1=O | 130 to 132 °C |
| CS(=O)(=O)c1ccc(C2=C(c3ccccc3)CC2)cc1 | 73 to 75 °C |
| Oc1ccc2c(c1)[C@H](O)[C@H](Oc1cccnc1)CO2 (relative stereo) | 194 to 197 °C |
| CC1Cc2c(c(Br)cc(F)c2-n2c(=O)cc(C(F)(F)F)n(C)c2=O)O1 (stereo not drawn) | 66 to 75.5 °C |
